Test results as given in US5885987A, “Phenylene derivatives” (Kowa Co., Ltd., priority 1996, dated 1999).

Molecular target: T1, LTD4 receptor (Cavia porcellus, UniProt Q2NNR5)
T1 construct: guinea pig pulmomembranous protein; from tissue; host or cells: guinea pig lung membranes
T1 sequence (Q2NNR5 1-340): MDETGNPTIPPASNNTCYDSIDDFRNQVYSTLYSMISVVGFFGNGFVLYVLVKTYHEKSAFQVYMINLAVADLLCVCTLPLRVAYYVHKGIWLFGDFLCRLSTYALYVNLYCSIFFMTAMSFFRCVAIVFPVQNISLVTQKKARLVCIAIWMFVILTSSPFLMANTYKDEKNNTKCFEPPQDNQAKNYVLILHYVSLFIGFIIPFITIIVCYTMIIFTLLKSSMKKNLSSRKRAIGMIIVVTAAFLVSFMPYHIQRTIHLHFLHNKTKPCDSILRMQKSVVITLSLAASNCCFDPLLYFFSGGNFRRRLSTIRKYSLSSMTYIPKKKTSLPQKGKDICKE
Assay: LTD4 receptor binding inhibition test ([^3 H]leukotriene D4, guinea pig pulmomembranous protein)
Conditions: a: 100 μM; read-out: LTD4 receptor (%), inhibition rate
Protocol: 2) LTD4 Receptor Binding Inhibition Test
An ice-cooled tris hydrochloride/sodium chloride buffer (10 mM/100 mM, pH 7.5) was added to terminate the reaction, followed by immediate filtration through a Wattman CF/C filter. The filter was washed twice with 20 ml aliguots of the ice-cooled buffer. The radioactivity of the residue was measured by a liquid scintillation counter. […] In a binding assay, 2 μM leukotriene D4 was used for the measurement of a nonspecific binding.

SMILES | inhibition at 100 µM
Cc1ccc(OCc2cccc(OCc3ccc4ccccc4n3)c2)c2cc(Cl)c(=O)[nH]c12 [Example 4] | 0%
Cc1ccc(OCc2ccc(OCc3ccc4ccccc4n3)cc2)c2cc(C#N)c(=O)[nH]c12 [Example 19, 3-Cyano-8-methyl-5-[4-(2-quinolinylmethoxy)benzyloxy]-1,2-dihydroquinolin-2-one] | 0%
Cc1ccc(OCc2ccc(OCc3ccc4ccccc4n3)cc2)c2cc(Cl)c(=O)[nH]c12 [Example 20, 3-Chloro-8-methyl-5-[4-(2-quinolinylmethoxy)benzyloxy]-1,2-dihydroquinolin-2-one] | 0%
O=C1CSc2cc(OC(=O)c3cccc(OCc4ccc5ccccc5n4)c3)ccc2N1 [Example 58, 7-[3-(2-Quinolinylmethoxy]benzoyloxy]-3,4-dihydro-2H-1,4-benzothiazin-3-one] | 0%

Same assay, conditions: b: 10 μM; read-out: LTD4 receptor (%), inhibition rate

SMILES | inhibition at 10 µM
O=C1CSc2cc(OC(=O)c3ccc(OCc4ccc5ccccc5n4)cc3)ccc2N1 [Example 66, 7-[4-(2-Quinolinylmethoxy)benzoyloxy]-3 4-dihydro-2H-1,4-benzothiazin-3-one] | 28%

Same assay, conditions: concentration not given

SMILES | LTD4 receptor (%), inhibition rate
Cc1ccc(OC(=O)c2ccc(OCc3ccc4ccccc4n3)cc2)c2cc(C#N)c(=O)[nH]c12 [Example 62, 3-Cyano-8-methyl-5-[4-(2-quinolinylmethoxy)benzoyloxy]-1,2-dihydroquinolin-2-one] | 0%

Same assay, conditions: read-out: LTD4 receptor, dissociation constant KD

SMILES | Kd
N#Cc1cc2cc(OCc3cccc(OCc4ccc5ccccc5n4)c3)ccc2[nH]c1=O [Example 1, 3-cyano-6-[3-(2-quinolinylmethoxy)benzyloxy]-1,2-dihydroquinolin-2-one] | 118 nM
Cc1ccc(OCc2cccc(OCc3ccc4ccccc4n3)c2)c2ccc(=O)[nH]c12 [Example 2, 8-Methyl-5-[3-(2-quinolinylmethoxy)benzyloxy]-1,2-dihydroquinolin-2-one] | 1560 nM
Cc1ccc(OCc2cccc(OCc3ccc4ccccc4n3)c2)c2c1NC(=O)C2(C)C [Example 13, 4-[3-(2-Quinolinylmethoxy)benzyloxy]-3,3,7-trimethyl-2,3-dihydro-1H-indol-2-one] | 303 nM
O=C1CSc2cc(OCc3ccc(OCc4ccc5ccccc5n4)cc3)ccc2N1 [Example 26, 7-[4-(2-Quinolinylmethoxy)benzyloxy]-3,4-dihydro-2H-1,4-benzothiazin-3-one] | 546000 nM
Cc1ccc(OCc2cccc(OCc3ccc4ccccc4n3)c2)c2cc(-c3nn[nH]n3)c(=O)[nH]c12 [Example 47, 8-methyl-5-[3-(2-quinolinylmethoxy)benzyloxy]-3-(5-tetrazolyl)-1,2-dihydroquinolin-2-one] | 335 nM
Cc1ccc(OCc2ccc(OCc3ccc4ccccc4n3)cc2)c2cc(-c3nn[nH]n3)c(=O)[nH]c12 [Example 48, 8-methyl-5-[4-(2-quinolinylmethoxy)benzyloxy]-3-(5-tetrazolyl)-1,2-dihydroquinolin-2-one] | 304 nM
Cc1ccc(OCc2cccc(OCc3ccc4ccccc4n3)c2)c2c1NC(=S)C2(C)C [Example 49, 4-[3-(2-quinolinylmethoxy)benzyloxy]-3,3,7-trimethyl-2,3-dihydro-1H-indol-2-thione] | 40000 nM
O=C(O)c1cc2cc(OCc3cccc(OCc4ccc5ccccc5n4)c3)ccc2[nH]c1=O [Example 50, 2-oxo-6-[3-(2-quinolinylmethoxy)benzyloxy]-1,2-dihydroquinoline-3-carboxylic acid] | 1080 nM
Cc1ccc(OCc2cccc(OCc3ccc4ccccc4n3)c2)c2cc(C(=O)O)c(=O)[nH]c12 [Example 51, 8-methyl-2-oxo-5-[3-(2-quinolinylmethoxy)benzyloxy]-1,2-dihydroquinoline-3-carboxylic acid] | 11700 nM
Cc1ccc(OCc2ccc(OCc3ccc4ccccc4n3)cc2)c2cc(C(=O)O)c(=O)[nH]c12 [Example 52, 8-methyl-2-oxo-5-[4-(2-quinolinylmethoxy)benzyloxy]-1,2-dihydroquinoline-3-carboxylic acid] | 302 nM
